The values below come from paper PMC6990627 (ACS Omega, 2020).

pIC50: −log10 of the molar value. Counter-ions that a name gives are not always drawn. Like-named read-outs stand apart in the source and are kept apart here.

One experiment addresses EeAChE (Electrophorus electricus, UniProt O42275). The experiment can be described thus: Ellman assay, EeAChE inhibition. Format: biochemical. Particulars: average of three determinations. In general terms: In Ellman's method for cholinesterases, released thiocholine reacts with DTNB.
Experiment [1] addresses T1, eqBChE (Equus caballus, UniProt P81908). The experiment can be described thus: Ellman assay, eqBChE inhibition. Particulars: screened at 10 and 100 μM. Format: biochemical, equine.
Another experiment has as its system AChE. Conditions: read-out: AChE IC50, cited from earlier work.
Experiment [2] concerns the target T1, eqBChE. The experiment can be described thus: Enzyme kinetics. Format: biochemical, equine. Conditions: Lineweaver-Burk plot.

Chain of EeAChE (O42275 24-633): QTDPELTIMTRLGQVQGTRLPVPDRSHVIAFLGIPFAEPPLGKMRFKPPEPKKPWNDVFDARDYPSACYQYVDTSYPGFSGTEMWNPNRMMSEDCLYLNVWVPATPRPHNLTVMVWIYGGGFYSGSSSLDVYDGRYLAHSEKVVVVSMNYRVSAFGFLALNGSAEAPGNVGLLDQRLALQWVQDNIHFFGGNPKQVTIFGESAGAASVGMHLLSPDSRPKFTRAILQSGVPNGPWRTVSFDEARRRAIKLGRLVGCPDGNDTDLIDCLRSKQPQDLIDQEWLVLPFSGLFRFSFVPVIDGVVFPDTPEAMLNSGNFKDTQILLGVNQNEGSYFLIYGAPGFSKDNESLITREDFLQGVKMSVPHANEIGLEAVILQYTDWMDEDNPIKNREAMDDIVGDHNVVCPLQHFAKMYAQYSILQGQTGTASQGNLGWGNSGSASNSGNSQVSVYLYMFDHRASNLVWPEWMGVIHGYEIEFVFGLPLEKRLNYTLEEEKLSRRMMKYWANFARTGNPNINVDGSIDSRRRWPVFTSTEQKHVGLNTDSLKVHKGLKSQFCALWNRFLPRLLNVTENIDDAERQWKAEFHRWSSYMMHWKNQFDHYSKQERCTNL
T1 sequence (P81908 whole entry): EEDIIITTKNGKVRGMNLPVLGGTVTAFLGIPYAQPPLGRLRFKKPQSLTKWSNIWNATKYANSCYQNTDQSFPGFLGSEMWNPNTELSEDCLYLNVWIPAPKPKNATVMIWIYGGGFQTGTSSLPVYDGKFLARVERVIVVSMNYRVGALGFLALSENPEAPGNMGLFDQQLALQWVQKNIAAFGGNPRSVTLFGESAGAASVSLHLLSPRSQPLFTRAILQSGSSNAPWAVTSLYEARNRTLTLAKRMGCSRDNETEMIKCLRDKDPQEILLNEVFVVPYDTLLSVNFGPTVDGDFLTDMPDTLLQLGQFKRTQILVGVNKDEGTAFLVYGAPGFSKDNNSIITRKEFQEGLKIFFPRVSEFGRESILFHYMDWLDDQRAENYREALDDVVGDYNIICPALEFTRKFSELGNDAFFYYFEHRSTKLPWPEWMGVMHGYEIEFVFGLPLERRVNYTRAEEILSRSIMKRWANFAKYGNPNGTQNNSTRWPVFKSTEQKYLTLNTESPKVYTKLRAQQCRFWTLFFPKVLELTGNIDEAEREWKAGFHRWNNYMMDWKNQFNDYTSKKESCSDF

Regarding `Cc1cc(O)c2c(c1)C(=O)c1cccc(O)c1C2=O` [chrysophanol], the results for the pIC50 against EeAChE, with AChE (ref 19) and in the experiment with AChE (ref 20) were 4.47, 4.16 and 4.12, respectively. The “activity against BChE (in words)” value at eqBChE [1] is “weakly active”.
Take `COc1cc2c(cc1OC)C(=O)C(CC1CCN(Cc3ccccc3)CC1)C2` (stereo not drawn) [donepezil HCl, donepezil hydrochloride]: the “type of inhibition, eqBChE” value on eqBChE [2] is listed as “noncompetitive”.
Regarding `Cc1cc(O)c2c(c1)C(=O)c1cc(O)cc(O)c1C2=O` [emodin], the pIC50 (as a rule, the IC50 on a negative log10 scale, so that one unit is a factor of ten) was 4.82 on EeAChE, 5.04 in the experiment with AChE (ref 19) and 4.66 in the experiment on AChE (ref 20). The “activity against BChE (in words)” value on eqBChE [1] was “weakly active”.
Regarding `COc1cc(O)c2c(c1)C(=O)c1cc(C)cc(O)c1C2=O` [physcion], the negative logarithm of the IC50 (pIC50) was 4.92 against EeAChE and 5.08 in the experiment on AChE (ref 19). At eqBChE [1], the “activity against BChE (in words)” value is recorded as “weakly active”.
